Results as given in ChEMBL document CHEMBL5380877, “Azulene as a biphenyl mimetic in orexin/hypocretin receptor agonists” (Bioorg Med Chem, 2023).

What follows are compounds tested against T1, Orexin receptor type 2 (Homo sapiens, UniProt O43614) (assay: Antagonist activity at human OX2 receptor expressed in CHO cells assessed as reduction in orexin-A induced calcium level at 10 uM incubated for 24 hrs by FLIPR calcium 4 assay).
T1 sequence (O43614 whole entry): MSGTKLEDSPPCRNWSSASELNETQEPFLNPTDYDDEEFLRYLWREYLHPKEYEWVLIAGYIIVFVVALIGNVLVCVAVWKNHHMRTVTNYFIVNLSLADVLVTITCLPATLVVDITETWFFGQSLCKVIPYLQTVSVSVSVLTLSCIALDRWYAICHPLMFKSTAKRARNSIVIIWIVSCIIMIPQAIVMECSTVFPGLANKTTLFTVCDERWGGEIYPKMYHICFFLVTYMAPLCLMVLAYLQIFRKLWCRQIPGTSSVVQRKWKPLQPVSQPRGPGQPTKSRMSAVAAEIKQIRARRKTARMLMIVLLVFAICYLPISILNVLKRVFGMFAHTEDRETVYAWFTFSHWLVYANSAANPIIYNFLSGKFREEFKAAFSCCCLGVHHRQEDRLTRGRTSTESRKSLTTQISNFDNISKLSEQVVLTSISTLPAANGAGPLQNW
Type: functional, cell-based

Compound | Ki
CN(C)C(=O)c1ccc2ccc(C(=O)N(C)C)c-2cc1 | > 10 µM
CN(C)C(=O)c1ccc2ccc(C(=O)C(F)(F)F)c-2cc1 | > 10 µM
Cc1cccc(C(=O)NCCN(C(=O)C(F)(F)F)c2cccc(NS(=O)(=O)c3cc(C(=O)C(F)(F)F)c4ccc(C(=O)N(C)C)ccc3-4)c2)c1 | > 10 µM
Cc1ccc2c(C(=O)N(C)C)cc(S(=O)(=O)O)c-2cc1 | > 10 µM
Cc1ccc2c(C(=O)C(F)(F)F)cc(S(=O)(=O)O)c-2cc1 | > 10 µM
CN(C)C(=O)c1ccc2c(C(=O)N(C)C)cc(S(=O)(=O)O)c-2cc1 | > 10 µM

Now from value to compound:

Ki | Compound
> 10 µM | Cc1ccc2c(C(=O)N(C)C)cc(S(=O)(=O)Nc3cccc(N(CCNC(=O)c4cccc(C)c4)C(=O)C(F)(F)F)c3)c-2cc1
> 10 µM | Cc1cccc(C(=O)NCCNc2cccc(NS(=O)(=O)c3cc(C(=O)C(F)(F)F)c4ccc(C(=O)N(C)C)ccc3-4)c2)c1
5 µM | Cc1ccc2c(C(=O)C(F)(F)F)cc(S(=O)(=O)Nc3cccc(NCCNC(=O)c4cccc(C)c4)c3)c-2cc1

These compounds were tested against T2, Orexin/Hypocretin receptor type 1 (Homo sapiens, UniProt O43613) (assay: Antagonist activity at human OX1 receptor expressed in CHO cells assessed as reduction in orexin-A induced calcium level at 10 uM incubated for 24 hrs by FLIPR calcium 4 assay).
T2 sequence (O43613 whole entry): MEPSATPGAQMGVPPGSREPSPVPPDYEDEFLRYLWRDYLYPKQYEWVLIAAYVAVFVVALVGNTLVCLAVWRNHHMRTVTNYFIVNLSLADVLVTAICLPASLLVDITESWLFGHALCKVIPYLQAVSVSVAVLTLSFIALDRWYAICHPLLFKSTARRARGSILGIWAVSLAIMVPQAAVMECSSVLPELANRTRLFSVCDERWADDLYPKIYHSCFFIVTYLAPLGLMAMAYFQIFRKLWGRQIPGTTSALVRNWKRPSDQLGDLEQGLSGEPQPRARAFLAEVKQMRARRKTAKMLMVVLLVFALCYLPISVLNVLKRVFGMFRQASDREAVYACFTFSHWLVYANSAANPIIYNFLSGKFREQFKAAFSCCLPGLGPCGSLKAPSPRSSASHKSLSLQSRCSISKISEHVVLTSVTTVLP
Type: functional, cell-based

Ki | Compound
4 µM | Cc1ccc2c(C(=O)N(C)C)cc(S(=O)(=O)Nc3cccc(NCCNC(=O)c4cccc(C)c4)c3)c-2cc1

What follows are compounds tested against T2, Orexin/Hypocretin receptor type 1 (assay: Agonist activity at human OX1 receptor expressed in CHO cells assessed as increase in Ca2+ accumulation level measured after 24 hrs by FLIPR calcium 4 assay).
Type: functional, cell-based

EC50 | Compound
1.62 µM | Cc1ccc2c(C(=O)N(C)C)cc(S(=O)(=O)Nc3cccc(NCCNC(=O)c4cccc(C)c4)c3)c-2cc1
